Test results reported in patent US20260193644A1, “Compositions and Methods For Modulation of Tumor Suppressors and Oncogenes” (FLAGSHIP PIONEERING INNOVATIONS VII, LLC, priority 2022, published 2026).
Where “and” joins values, the source holds several entries; their conditions need not be identical. Identical values can stand only once.

How the values were obtained:
[1] = tested on: HCT116 cells; assay: WST-1 proliferation assay on HCT116 cells treated with peptide; assay type: cell-based
Protocol: Proliferation: HCT-116 cells were plated in 96 well plate (5,000 cells/well) grown in standard media supplemented with 10% FBS. After 48 hours incubation at 37° C. (5% CO2), the cells are subjected to the WST-1 ([…]) assay. The WST-1 assay (Sigma) is a measure of the metabolic activity (i.e. proliferative rate) of cells. […]

[2] = tested on: U2OS cells; assay: WST-1 proliferation assay on U2OS cells treated with peptide; assay type: cell-based
[3] = Low sera (continued), 0.5 uM, head 3 SD
[4] = Low sera (continued), 0.1 uM, head 2 SD
[5] = Low sera (continued), 0.1 uM, head 4 SD

## SEQ ID NO: 28759: peptide hit of Table E; sequence only in Sequence Listing (MKKSCRWVFFLITKSLFKETVA; listed as Homo sapiens)
[1]; 0.5 uM, head 3 SD
  proliferation hit score, High sera: −1.466 SD
[1]; 5 uM, head 3 sd
  proliferation hit score, High sera: −1.78 SD
[1]; [3]
  proliferation hit score, Low sera: 0.5212 SD
[1]; Low sera, 5 uM, head 2 SD
  proliferation hit score, Low sera: −3.329 SD
[2]; 5 uM, head 5 SD
  proliferation hit score, High sera: 1.2 SD
[2]; [3]
  proliferation hit score, Low sera: −1.934 SD
[2]; Low sera, 5 uM, head 2 SD
  proliferation hit score, Low sera: −4.99 SD

## SEQ ID NO: 29230: peptide hit of Table E; sequence only in Sequence Listing (REQVPGMGGKSWLFFYSLVFCALLPLPRREDPFKLF; listed as Homo sapiens)
[1]; 0.1 uM, head 3 SD
  proliferation hit score, High sera: 2.159 SD
[1]; 1 uM, head 2 SD
  proliferation hit score, High sera: −0.4364 SD
[1]; 10 uM, head 4 SD
  proliferation hit score, High sera: 0.2713 SD
[1]; Low sera, 1 uM, head 3 SD
  proliferation hit score, Low sera: −1.09 SD
[1]; Low sera, 10 uM, head 3 SD
  proliferation hit score, Low sera: −2.162 SD
[2]; 1 uM, head 5 SD
  proliferation hit score, High sera: −5.771 SD
[2]; 10 uM, head 8 SD
  proliferation hit score, High sera: −5.758 SD
[2]; [4]
  proliferation hit score, Low sera: −2.296 SD
[2]; [5]
  proliferation hit score, Low sera: 2.01 SD
[2]; Low sera, 1 uM, head 5 SD
  proliferation hit score, Low sera: 3.875 SD
[2]; Low sera, 10 uM, head 6 SD
  proliferation hit score, Low sera: 2.682 SD

## SEQ ID NO: 33599: ORF peptide; sequence only in Sequence Listing (MCLGLLFCFMPLSLVVSSEEARFKVAADLCGFATGNSW; listed as Homo sapiens)
[1]; 0.1 uM, head 3 SD
  proliferation hit score, High sera: 0.5427 SD
[1]; 1 uM, head 2 SD
  proliferation hit score, High sera: −0.6105 SD
[1]; 10 uM, head 4 SD
  proliferation hit score, High sera: −4.843 SD
[1]; Low sera, 1 uM, head 3 SD
  proliferation hit score, Low sera: −0.9914 SD
[1]; Low sera, 10 uM, head 3 SD
  proliferation hit score, Low sera: −5.29 SD
[2]; 1 uM, head 5 SD
  proliferation hit score, High sera: −2.566 SD
[2]; 10 uM, head 8 SD
  proliferation hit score, High sera: −14.68 SD
[2]; [4]
  proliferation hit score, Low sera: −0.8886 SD
[2]; [5]
  proliferation hit score, Low sera: 2.01 SD
[2]; Low sera, 1 uM, head 5 SD
  proliferation hit score, Low sera: 4.323 SD
[2]; Low sera, 10 uM, head 6 SD
  proliferation hit score, Low sera: −8.391 SD

## SEQ ID NO: 33681: peptide hit of Table E; sequence only in Sequence Listing (IMAIFFFFCIIVSSLPTAELGTENACSTCLLNE; listed as Homo sapiens)
[1]; 0.1 uM, head 3 SD
  proliferation hit score, High sera: 0.9926 SD
[1]; 1 uM, head 2 SD
  proliferation hit score, High sera: −3.672 SD
[1]; 10 uM, head 4 SD
  proliferation hit score, High sera: −8.606 SD
[1]; Low sera, 1 uM, head 3 SD
  proliferation hit score, Low sera: 0.1255 SD
[1]; Low sera, 10 uM, head 3 SD
  proliferation hit score, Low sera: −2.584 SD
[2]; 1 uM, head 5 SD
  proliferation hit score, High sera: −0.8283 SD
[2]; 10 uM, head 8 SD
  proliferation hit score, High sera: −10.57 SD
[2]; [4]
  proliferation hit score, Low sera: −1.01 SD
[2]; [5]
  proliferation hit score, Low sera: 4.988 SD
[2]; Low sera, 1 uM, head 5 SD
  proliferation hit score, Low sera: 9.376 SD
[2]; Low sera, 10 uM, head 6 SD
  proliferation hit score, Low sera: −6.861 SD

## SEQ ID NO: 34047: peptide hit of Table E; sequence only in Sequence Listing (MHINYFFFLKLFLSLQNLILALDLRRESLTRDETQ; listed as Homo sapiens)
[1]; 0.5 uM, head 3 SD
  proliferation hit score, High sera: 0.5338 SD
[1]; 5 uM, head 3 sd
  proliferation hit score, High sera: 0.008734 SD
[1]; [3]
  proliferation hit score, Low sera: 1.561 SD
[1]; Low sera, 5 uM, head 2 SD
  proliferation hit score, Low sera: 0.3241 SD
[2]; 5 uM, head 5 SD
  proliferation hit score, High sera: −6.825 SD
[2]; [3]
  proliferation hit score, Low sera: 2.331 SD
[2]; Low sera, 5 uM, head 2 SD
  proliferation hit score, Low sera: −5.958 SD

## SEQ ID NO: 38017: peptide hit of Table E; sequence only in Sequence Listing (GVFVVARDRRRRELRTGAFSLLLGVVALLPLCGKRIQALPRACGCGGPEVLVVPR; listed as Homo sapiens)
[1]; 0.5 uM, head 3 SD
  proliferation hit score, High sera: −0.9491 SD
[1]; 5 uM, head 3 sd
  proliferation hit score, High sera: −1.457 SD
[1]; [3]
  proliferation hit score, Low sera: −0.1996 SD
[1]; Low sera, 5 uM, head 2 SD
  proliferation hit score, Low sera: −1.525 SD
[2]; 5 uM, head 5 SD
  proliferation hit score, High sera: −3.812 SD
[2]; [3]
  proliferation hit score, Low sera: 2.343 SD
[2]; Low sera, 5 uM, head 2 SD
  proliferation hit score, Low sera: −2.719 SD

## SEQ ID NO: 38073: peptide hit of Table E; sequence only in Sequence Listing (MTVSLFLLLATSQSQDGCCDSGSCPNSRQQEGHGAAPASSCLPIP; listed as Homo sapiens)
[1]; 0.5 uM, head 3 SD
  proliferation hit score, High sera: 0.3814 SD
[1]; 5 uM, head 3 sd
  proliferation hit score, High sera: −0.2232 SD
[1]; [3]
  proliferation hit score, Low sera: 0.586 SD
[1]; Low sera, 5 uM, head 2 SD
  proliferation hit score, Low sera: 0.1141 SD
[2]; 5 uM, head 5 SD
  proliferation hit score, High sera: −4.132 SD
[2]; [3]
  proliferation hit score, Low sera: 3.652 SD
[2]; Low sera, 5 uM, head 2 SD
  proliferation hit score, Low sera: −1.571 SD

## SEQ ID NO: 38076: ORF peptide; sequence only in Sequence Listing (MHLLLLPVIFLPWVLPQHKHTSATPGFSSEKQFMSETENQTANVKFY; listed as Homo sapiens)
[1]; 0.5 uM, head 3 SD
  proliferation hit score, High sera: −0.8521 SD
[1]; 5 uM, head 3 sd
  proliferation hit score, High sera: −1.476 SD
[1]; [3]
  proliferation hit score, Low sera: 0.1011 SD
[1]; Low sera, 5 uM, head 2 SD
  proliferation hit score, Low sera: −0.293 SD
[2]; 5 uM, head 5 SD
  proliferation hit score, High sera: −0.8798 SD
[2]; [3]
  proliferation hit score, Low sera: 3.033 SD
[2]; Low sera, 5 uM, head 2 SD
  proliferation hit score, Low sera: 0.2974 SD

## SEQ ID NO: 38081: peptide hit of Table E; sequence only in Sequence Listing (MRRAWRPRLLGAALVAH; listed as Homo sapiens)
[1]; 0.1 uM, head 3 SD
  proliferation hit score, High sera: −0.4952 SD
[1]; 1 uM, head 2 SD
  proliferation hit score, High sera: −0.4884 SD
[1]; 10 uM, head 4 SD
  proliferation hit score, High sera: −0.5065 SD
[1]; Low sera, 1 uM, head 3 SD
  proliferation hit score, Low sera: −3.589 SD
[1]; Low sera, 10 uM, head 3 SD
  proliferation hit score, Low sera: −2.477 SD
[2]; 1 uM, head 5 SD
  proliferation hit score, High sera: −15.19 SD
[2]; 10 uM, head 8 SD
  proliferation hit score, High sera: −3.67 SD
[2]; [4]
  proliferation hit score, Low sera: −3.47 SD
[2]; [5]
  proliferation hit score, Low sera: 2.082 SD
[2]; Low sera, 1 uM, head 5 SD
  proliferation hit score, Low sera: 1.521 SD
[2]; Low sera, 10 uM, head 6 SD
  proliferation hit score, Low sera: −2.322 SD

B1: SEQ ID NO: 34508: ORF peptide; sequence only in Sequence Listing (peptide, listed as Homo sapiens)
chain: LPLYPLHRKWAGSGLLVFAAPAARAQQGPGEMATVPAPGRTGERALPPPHVSARASFLGSTLWM
[1]; 0.1 uM, head 3 SD
  proliferation hit score, High sera: −5.097 SD
[1]; 0.5 uM, head 3 SD
  proliferation hit score, High sera: 0.2038 SD
[1]; 1 uM, head 2 SD
  proliferation hit score, High sera: −2.867 SD
[1]; 5 uM, head 3 sd
  proliferation hit score, High sera: −0.02329 SD
[1]; 10 uM, head 4 SD
  proliferation hit score, High sera: −5.856 SD
[1]; [3]
  proliferation hit score, Low sera: 0.9567 SD
[1]; Low sera, 1 uM, head 3 SD
  proliferation hit score, Low sera: −1.6 SD
[1]; Low sera, 5 uM, head 2 SD
  proliferation hit score, Low sera: 1.932 SD
[1]; Low sera, 10 uM, head 3 SD
  proliferation hit score, Low sera: −3.628 SD
[2]; 1 uM, head 5 SD
  proliferation hit score, High sera: −1.711 SD
[2]; 5 uM, head 5 SD
  proliferation hit score, High sera: −0.8798 SD
[2]; 10 uM, head 8 SD
  proliferation hit score, High sera: −12.11 SD
[2]; [4]
  proliferation hit score, Low sera: 1.335 SD
[2]; [5]
  proliferation hit score, Low sera: 3.475 SD
[2]; [3]
  proliferation hit score, Low sera: 5.043 SD
[2]; Low sera, 1 uM, head 5 SD
  proliferation hit score, Low sera: 4.275 SD
[2]; Low sera, 5 uM, head 2 SD
  proliferation hit score, Low sera: 1.344 SD
[2]; Low sera, 10 uM, head 6 SD
  proliferation hit score, Low sera: −11.74 SD

B2: SEQ ID NO: 26298: peptide hit of Table E; sequence only in Sequence Listing (peptide, listed as Homo sapiens)
chain: VQSGKCESSVLGYSATCLPDMGRWRVSSVESWPFASTGGKLAIATAGTGTQAAPRPFLIRPPDSWALALALM
[2]; [3]
  proliferation hit score, Low sera: 2.391 SD and 2.95 SD
